# Test results taken from ChEMBL document CHEMBL6074686 (Eur J Med Chem, 2025).
# The source made the active and inactive calls. The calls are words filed in the database; no cut-off is given here.
# Key:
# SK-OV-3 [1] = test: Antitumor activity against human SK-OV-3 cells assessed as reduction in cell viability incubated for 72 hrs by CCK8 assay; type: functional, cell-based; settings: SK-OV-3, 72 h
# A549 = test: Antitumor activity against human A549 cells assessed as reduction in cell viability incubated for 72 hrs by CCK8 assay; type: functional, cell-based; settings: A549, 72 h
# MCF7 = test: Antitumor activity against human MCF7 cells assessed as reduction in cell viability incubated for 72 hrs by CCK8 assay; type: functional, cell-based; settings: MCF7, 72 h
# MDA-MB-231 = test: Antitumor activity against human MDA-MB-231 cells assessed as reduction in cell viability incubated for 72 hrs by CCK8 assay; settings: MDA-MB-231, 72 h
# SK-OV-3 [2] = test: Antitumor activity against human SK-OV-3 cells xenografted in female BALB/c nude mouse assessed as tumor growth inhibition at 10 mg/kg, […] via tail vein once every 2 to 3 days; type: functional; settings: time 2-3 day, read-out: TGI
# Tubulin (Homo sapiens) [3] = biological target: T1, Tubulin (Homo sapiens) (UniProt P68371+Q9H4B7+P0DPH7+P68366+Q13509+Q71U36+P04350+Q3ZCM7+P07437+P68363+Q9BQE3+Q6PEY2+Q13885+Q9BVA1+Q9BUF5); test: Inhibition of tubulin polymerization in human SK-OV-3 cells at 20 nM incubated for 18 hrs by Alexa Fluor 488 staining based confocal immunofluorescent microscopic analysis; type: cell-based
# Tubulin (Homo sapiens) [4] = biological target: T1, Tubulin (Homo sapiens); test: Inhibition of tubulin polymerization (unknown origin) assessed as increase in optical density at 340 nm at 10 uM; type: protein-complex assay
Compound,IC50 (SK-OV-3 [1]) [nM],IC50 (A549) [nM],IC50 (MCF7) [nM],IC50 (MDA-MB-231) [nM],inhibition (Tubulin (Homo sapiens) [4]),inhibition in vivo at 10 mg/kg (SK-OV-3 [2]) [%],inhibition (Tubulin (Homo sapiens) [3])
COc1ccc2c(c1)CCCN2c1nc(Cl)nc2ccc(I)cc12,160,315,547,327,,,
COc1ccc2c(c1)CCCN2c1nc(N2CCN(C)CC2)nc2ccc(F)cc12,> 1000,> 1000,> 1000,> 1000,,,
COc1ccc2c(c1)CCCN2c1nc(N2CCCCC2)nc2ccc(F)cc12,> 1000,> 1000,> 1000,> 1000,,,
CCN(CC)c1nc(N2CCCc3cc(OC)ccc32)c2cc(F)ccc2n1,471,> 1000,714,900,,,
COc1ccc(Nc2nc(N3CCCc4cc(OC)ccc43)c3cc(F)ccc3n2)cc1,> 1000,> 1000,> 1000,> 1000,,,
COc1ccc2c(c1)CCCN2c1nc(N2CCCC2)nc2ccc(F)cc12,> 1000,> 1000,> 1000,> 1000,,,
COc1ccc2c(c1)CCCN2c1nc(NC2CCCC2)nc2ccc(F)cc12,> 1000,> 1000,> 1000,> 1000,,,
COc1ccc2c(c1)CCCN2c1nc(NCc2ccccc2)nc2ccc(F)cc12,> 1000,> 1000,> 1000,> 1000,,,
COc1ccc(-c2nc(N3CCCc4cc(OC)ccc43)c3cc(F)ccc3n2)cc1,> 1000,> 1000,> 1000,> 1000,,,
COc1ccc2c(c1)CCCN2c1nc(NC(C)(C)C)nc2ccc(F)cc12,> 1000,> 1000,> 1000,> 1000,,,
COc1cc2c(c(OC)c1OC)-c1ccc(OC)c(=O)cc1[C@@H](NC(C)=O)CC2 [COLCHICINE],6.3,31.4,,12.1,,,
COc1ccc2c(c1)CCCN2c1nc(NCCN(C)C)nc2ccc(F)cc12,> 1000,> 1000,> 1000,> 1000,,,
COc1ccc2c(c1)CCCN2c1nc(Cl)nc2ccc(C(F)(F)F)cc12,> 1000,> 1000,> 1000,> 1000,,,
COc1ccc2c(c1)CCCN2c1nc(-c2cc(OC)c(OC)c(OC)c2)nc2ccc(F)cc12,> 1000,> 1000,> 1000,> 1000,,,
COc1ccc2c(c1)CCCN2c1nc(NC2CCCCC2)nc2ccc(F)cc12,> 1000,> 1000,> 1000,> 1000,,,
COc1ccc2c(c1)CCCN2c1nc(Cl)nc2ccc(OC(F)(F)F)cc12,> 1000,> 1000,> 1000,> 1000,,,

# Continued by falling IC50 (SK-OV-3 [1]), values first:
IC50 (SK-OV-3 [1]) [nM],IC50 (A549) [nM],IC50 (MCF7) [nM],IC50 (MDA-MB-231) [nM],inhibition (Tubulin (Homo sapiens) [4]),Compound,inhibition in vivo at 10 mg/kg (SK-OV-3 [2]) [%],inhibition (Tubulin (Homo sapiens) [3])
157,440,553,330,,COc1ccc2c(c1)CCCN2c1nc(NCC(C)C)nc2ccc(F)cc12,,
69.4,90.9,192,136,,COc1ccc2c(c1)CCCN2c1nc(NCCOCCOCCO)nc2ccc(F)cc12,,
63.1,15.2,67.5,66.5,,COc1ccc2c(c1)CCCN2c1nc(Cl)nc2ccc(Br)cc12,,
58,33.4,65.4,65.3,,COc1ccc2c(c1)CCCN2c1nc(Cl)nc2ccc(OC)cc12,,
44.5,64.4,35.3,45.5,,COc1ccc2c(c1)CCCN2c1nc(N(C)C)nc2ccc(F)cc12,,
39.6,67,37.5,24.7,,COc1ccc2c(c1)CCCN2c1nc(Cl)nc2ccc(Cl)cc12,,
38.1,29.7,45.7,37.1,,COc1ccc2c(c1)CCCN2c1nc(Cl)nc2ccc(C)cc12,,
31.6,53.2,60.4,57.5,,COc1ccc2c(c1)CCCN2c1nc(N2CCOCC2)nc2ccc(F)cc12,,
31.3,51.3,23.8,36.2,,COc1ccc2c(c1)CCCN2c1nc(NC2CCC2)nc2ccc(F)cc12,,
26,69.2,47.1,61.1,,CCCCNc1nc(N2CCCc3cc(OC)ccc32)c2cc(F)ccc2n1,,
22.3,45.7,15.1,25,,COc1ccc2c(c1)CCCN2c1nc(NC(C)C)nc2ccc(F)cc12,,
22.2,29.8,24.6,36.7,,COc1ccc2c(c1)CCCN2c1nc(Cl)nc2ccc(F)cc12,,
18.9,33.1,28,39.7,,COCCCNc1nc(N2CCCc3cc(OC)ccc32)c2cc(F)ccc2n1,,
11.6,1.7,30.9,,Active,CC(=O)O[C@H]1C(=O)[C@@]2(C)[C@H]([C@H](OC(=O)c3ccccc3)[C@]3(O)C[C@H](OC(=O)[C@H](O)[C@@H](NC(=O)c4ccccc4)c4ccccc4)C(C)=C1C3(C)C)[C@]1(OC(C)=O)CO[C@@H]1C[C@@H]2O [PACLITAXEL],39.1,Not active; Aggregated Into Bundle Like Filamentary Structure
6.7,19.3,11.8,25.6,,CCCNc1nc(N2CCCc3cc(OC)ccc32)c2cc(F)ccc2n1,,
5.7,12.7,6,9.3,,COc1ccc2c(c1)CCCN2c1nc(NCCCO)nc2ccc(F)cc12,,
4.9,9.5,3.8,8.1,,CCNc1nc(N2CCCc3cc(OC)ccc32)c2cc(F)ccc2n1,,
4.4,7.2,6,7.1,,COc1ccc2c(c1)CCCN2c1nc(N)nc2ccc(F)cc12,,
3.4,22.8,17.8,15.8,,COCCNc1nc(N2CCCc3cc(OC)ccc32)c2cc(F)ccc2n1,,
1.5,7.5,2.4,11.5,,COc1ccc2c(c1)CCCN2c1nc(NC2CC2)nc2ccc(F)cc12,,
